We go through 14 molecules from US11066396B2 (priority 2016, dated 2021).

In this assay the target is HDAC8 (Homo sapiens (Human), UniProt Q9BY41). Conditions: read-out: HDAC8 IC50.
HDAC8, sequence (Q9BY41 whole entry): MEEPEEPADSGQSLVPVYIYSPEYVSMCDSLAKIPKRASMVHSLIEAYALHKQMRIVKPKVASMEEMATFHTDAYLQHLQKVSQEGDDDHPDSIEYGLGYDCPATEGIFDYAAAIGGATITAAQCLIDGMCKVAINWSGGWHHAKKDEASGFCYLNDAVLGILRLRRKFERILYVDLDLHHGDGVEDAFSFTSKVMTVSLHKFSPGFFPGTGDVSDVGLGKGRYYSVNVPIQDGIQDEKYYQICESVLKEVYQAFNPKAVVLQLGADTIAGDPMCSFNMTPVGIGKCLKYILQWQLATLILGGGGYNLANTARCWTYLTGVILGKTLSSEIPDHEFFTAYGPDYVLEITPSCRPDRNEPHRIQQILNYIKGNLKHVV
`FC(F)(F)c1nc(-c2ccc(N3CCOC[C@H]3c3ccccc3)nc2)no1` [Example 144, (R)-3-phenyl-4-(5-(5-(trifluoromethyl)-1,2,4-oxadiazol-3-yl)pyridin-2-yl)morpholine]: the IC50 is 2700 nM.

As for `FC(F)(F)c1nc(-c2ccc(N3CCCC3c3ccccn3)nc2)no1` (racemic) [Example 154, 3-(6-(2-(pyridin-2-yl)pyrrolidin-1-yl)pyridin-3-yl)-5-(trifluoromethyl)-1,2,4-oxadiazole], the IC50 turned out to be 3400 nM.

Turning to `FC(F)(F)c1nc(-c2ccc(N3CCCCC3c3cccnc3)nc2)no1` (racemic) [Example 157, 3-(6-(2-(pyridin-3-yl)piperidin-1-yl)pyridin-3-yl)-5-(trifluoromethyl)-1,2,4-oxadiazole], the IC50 was found to be 3300 nM.

For `FC(F)(F)c1nc(-c2ccc(CNCC3CN(Cc4ccccc4)CCO3)nc2)no1` (racemic) [Example 453, 1-(4-benzylmorpholin-2-yl)-N-({5-[5-(trifluoromethyl)-1,2,4-oxadiazol-3-yl]pyridin-2-yl}methyl)methanamine], the IC50 was 1900 nM.

Turning to `O=C1NCCN(c2ccc(-c3noc(C(F)(F)F)n3)cn2)C1c1cccc(F)c1` (racemic) [Example 132, 3-(3-fluorophenyl)-4-(5-(5-(trifluoromethyl)-1,2,4-oxadiazol-3-yl)pyridin-2-yl)piperazin-2-one], the IC50 worked out at 630 nM.

With `Cc1nonc1C1CCCN1c1ccc(-c2noc(C(F)(F)F)n2)cn1` (racemic) [Example 155, 3-(6-(2-(4-methyl-1,2,5-oxadiazol-3-yl)pyrrolidin-1-yl)pyridin-3-yl)-5-(trifluoromethyl)-1,2,4-oxadiazole], the half-inhibitory concentration (IC50) came to 1800 nM.

Regarding `Cc1cc(=O)n2c(n1)CN(c1ccc(-c3noc(C(F)(F)F)n3)cn1)CC2` [Example 158, 2-methyl-8-(5-(5-(trifluoromethyl)-1,2,4-oxadiazol-3-yl)pyridin-2-yl)-6,7,8,9-tetrahydro-4H-pyrazino[1,2-a]pyrimidin-4-one], the IC50 was 750 nM.

Regarding `CC(=O)N1CCC(CNCc2ccc(-c3noc(C(F)(F)F)n3)cn2)CC1` [Example 455, 1-(1-acetylpiperidin-4-yl)-N-({5-[5-(trifluoromethyl)-1,2,4-oxadiazol-3-yl]pyridin-2-yl}methyl)methanamine], the IC50 is 3800 nM.

As to `O=C(Nc1ccccc1)c1cccc(NCc2ccc(-c3noc(C(F)(F)F)n3)cn2)c1` [Example 440, N-phenyl-3-[({5-[5-(trifluoromethyl)-1,2,4-oxadiazol-3-yl]pyridin-2-yl}methyl)amino]benzamide], the IC50 worked out at 280 nM.

On to `FC(F)(F)c1nc(-c2ccc(CNCC3CN(c4ccccc4)CCO3)nc2)no1` (racemic) [Example 454, 1-(4-phenylmorpholin-2-yl)-N-({5-[5-(trifluoromethyl)-1,2,4-oxadiazol-3-yl]pyridin-2-yl}methyl)methanamine], for which the IC50 was 1700 nM.

On to `OCC1CC(c2ccccc2)N(c2ccc(-c3noc(C(F)(F)F)n3)cn2)C1` (racemic) [Example 152, (5-phenyl-1-(5-(5-(trifluoromethyl)-1,2,4-oxadiazol-3-yl)pyridin-2-yl)pyrrolidin-3-yl)methanol], for which the IC50 is 840 nM.

Regarding `FC(F)(F)c1nc(-c2ccc(N3CCCCC3c3ccccn3)nc2)no1` (racemic) [Example 147, 3-(6-(2-(pyridin-2-yl)piperidin-1-yl)pyridin-3-yl)-5-(trifluoromethyl)-1,2,4-oxadiazole], the IC50 amounted to 3200 nM.

`FC(F)(F)c1nc(-c2ccc(N3CCCC3c3cccnc3)nc2)no1` (racemic) [Example 151, 3-(6-(2-(pyridin-3-yl)pyrrolidin-1-yl)pyridin-3-yl)-5-(trifluoromethyl)-1,2,4-oxadiazole]: the IC50 stood at 1600 nM.

For the molecule `Cc1noc([C@H]2CCCCN2c2ccc(-c3noc(C(F)(F)F)n3)cn2)n1` [Example 138, (R)-3-methyl-5-(1-(5-(5-(trifluoromethyl)-1,2,4-oxadiazol-3-yl)pyridin-2-yl)piperidin-2-yl)-1,2,4-oxadiazole], the IC50 is 1200 nM.

As usually defined, the IC50 is the concentration that gives 50% inhibition.
